How the values were obtained:
Experiment in all cases: relative viability (nuclei count vs DMSO), 5 days (fraction); higher = more cells survive
[1] = compound: Cn1cnc2c(F)c(Nc3ccc(Br)cc3Cl)c(C(=O)NOCCO)cc21 [Selumetinib] + Nc1ncn([C@H]2C[C@H](O)[C@@H](CO)O2)c(=O)n1 [Decitabine] (partner 2 µM)
Procedure, shortened: (§1)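 After 5 days of treatment, lung cancer cells in 1536-well plates were fixed and stained in a single step (final 0.05% Triton X-100, 1% formaldehyde, 1 ug/ml Hoechst) and their nuclei counted on 4× images. Treatment had been applied by pin tool the day after seeding as one drug alone or as a fixed anchor-drug dose with five library-drug doses (not always all listed) in √10 steps. Relative viability is the nuclei count of treated wells divided by that of vehicle wells, and values are medians of duplicate plates.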

[2] = compound: CC1(C)CCC(CN2CCN(c3ccc(C(=O)NS(=O)(=O)c4ccc(NCC5CCOCC5)c([N+](=O)[O-])c4)c(Oc4cnc5[nH]ccc5c4)c3)CC2)=C(c2ccc(Cl)cc2)C1 [Venetoclax] + O=C(c1cc(Cc2n[nH]c(=O)c3ccccc23)ccc1F)N1CCN(C(=O)C2CC2)CC1 [Olaparib] (partner 8 µM)
Procedure, shortened: as §1

[3] = compound: CC1(C)CCC(CN2CCN(c3ccc(C(=O)NS(=O)(=O)c4ccc(NCC5CCOCC5)c([N+](=O)[O-])c4)c(Oc4cnc5[nH]ccc5c4)c3)CC2)=C(c2ccc(Cl)cc2)C1 [Venetoclax] + CS(=O)(=O)CCNCc1ccc(-c2ccc3ncnc(Nc4ccc(OCc5cccc(F)c5)c(Cl)c4)c3c2)o1 [Lapatinib] (partner 2 µM)
Procedure, shortened: as §1

[4] = compound: Cn1cnc2c(F)c(Nc3ccc(Br)cc3Cl)c(C(=O)NOCCO)cc21 [Selumetinib] + Cc1cc(Nc2cc(N3CCN(C)CC3)nc(Sc3ccc(NC(=O)C4CC4)cc3)n2)n[nH]1 [Tozasertib] (partner 0.1 µM)
Procedure, shortened: as §1

Cell Line | relative viability ([1]; first compound 0.02 µM) | relative viability ([1]; first compound 0.06325 µM) | relative viability ([1]; first compound 0.2 µM) | relative viability ([1]; first compound 0.6325 µM) | relative viability ([2]; first compound 0.01 µM) | relative viability ([2]; first compound 0.03162 µM) | relative viability ([2]; first compound 0.1 µM) | relative viability ([2]; first compound 0.3162 µM) | relative viability ([2]; first compound 1 µM) | relative viability ([3]; first compound 0.01 µM) | relative viability ([3]; first compound 0.03162 µM) | relative viability ([3]; first compound 0.1 µM) | relative viability ([3]; first compound 0.3162 µM) | relative viability ([3]; first compound 1 µM) | relative viability ([4]; first compound 0.02 µM) | relative viability ([4]; first compound 0.06325 µM) | relative viability ([4]; first compound 0.2 µM) | relative viability ([4]; first compound 0.6325 µM)
HCC-366 | 0.353 | 0.36 | 0.315 | 0.309 | 0.4 | 0.374 | 0.372 | 0.353 | 0.311 | 1.1 | 1.01 | 0.933 | 1.04 | 0.951 | 0.127 | 0.109 | 0.104 | 0.0897
HCC-827 | 0.362 | 0.317 | 0.351 | 0.448 | 0.647 | 0.703 | 0.642 | 0.603 | 0.655 | 0.234 | 0.216 | 0.174 | 0.191 | 0.233 | 0.42 | 0.393 | 0.408 | 0.361
HOP-62 | 0.164 | 0.278 | 0.238 | 0.232 | 0.318 | 0.622 | 0.359 | 0.203 | 0.394 | 1.29 | 1.12 | 1.02 | 1.01 | 0.896 | 0.377 | 0.317 | 0.376 | 0.328
IA-LM | – | – | – | – | 0.795 | 0.819 | 0.7 | 0.795 | 0.67 | 0.849 | 0.723 | 0.646 | 0.897 | 0.552 | – | – | – | –
LC-2-ad | 0.73 | 0.817 | 0.781 | 0.776 | 0.735 | 0.696 | 0.664 | 0.702 | 0.708 | 0.986 | 0.899 | 0.876 | 0.973 | 0.938 | 0.517 | 0.391 | 0.393 | 0.386
LCLC-97TM1 | 0.258 | 0.217 | 0.296 | 0.197 | 0.242 | 0.297 | 0.37 | 0.323 | 0.365 | – | 1 | 0.579 | 0.868 | 0.814 | 0.201 | 0.255 | 0.216 | 0.223
LCLC-103H | 0.697 | 0.715 | 0.71 | 0.706 | 0.778 | 0.846 | 0.783 | 0.787 | 0.752 | – | – | – | – | – | 0.514 | 0.458 | 0.435 | 0.349
LK-2 | 0.305 | 0.278 | 0.404 | 0.399 | 0.934 | 0.98 | 0.848 | 0.619 | 0.716 | 0.973 | 0.99 | 0.846 | 0.894 | 0.767 | 0.17 | 0.189 | 0.221 | 0.144
LOU-NH91 | 0.782 | 0.777 | 0.723 | 0.751 | 0.821 | 0.88 | 0.965 | 0.919 | 0.856 | 0.757 | 0.843 | 0.737 | 0.778 | 0.75 | 0.648 | 0.679 | 0.606 | 0.534
LU99A | 0.982 | 0.905 | 0.91 | 0.759 | 0.301 | 0.287 | 0.255 | 0.283 | 0.254 | 0.865 | 1 | 0.884 | 0.885 | 0.986 | 0.274 | 0.278 | 0.266 | 0.276
LXF-289 | 0.356 | 0.418 | 0.36 | 0.437 | 1.07 | 1.09 | 1.1 | 0.993 | 0.94 | 0.956 | 0.925 | 0.874 | 0.906 | 0.809 | 0.219 | 0.229 | 0.191 | 0.159
NCI-H441 | 0.244 | 0.224 | 0.207 | 0.268 | 0.627 | 0.646 | 0.568 | 0.611 | 0.582 | – | – | – | – | – | 0.587 | 0.656 | 0.636 | 0.583
NCI-H522 | 0.837 | 0.585 | 0.692 | 0.7 | 0.561 | 0.611 | 0.612 | 0.621 | 0.688 | – | – | – | – | – | 0.567 | 0.515 | 0.537 | 0.505
NCI-H1299 | – | – | – | – | 0.975 | 0.991 | 1.01 | 0.927 | 0.943 | 0.993 | 0.96 | 0.976 | 0.959 | 0.909 | – | – | – | –
NCI-H1563 | – | – | – | – | – | – | – | – | – | 0.691 | 1.08 | 1.14 | 1.28 | 0.953 | – | – | – | –
NCI-H1623 | – | – | – | – | – | – | – | – | – | – | – | – | – | – | 0.343 | 0.342 | 0.351 | 0.361
NCI-H1648 | – | 0.447 | 0.477 | 0.673 | – | 0.766 | 0.698 | 0.841 | 0.713 | – | – | – | – | – | 0.54 | 0.488 | 0.487 | 0.456
NCI-H1703 | – | – | – | – | 0.35 | 0.328 | 0.333 | 0.44 | 0.476 | 0.992 | 1.11 | 0.895 | 1.01 | 1.03 | – | – | – | –
NCI-H1792 | 0.635 | 0.486 | 0.52 | 0.425 | 0.286 | 0.463 | 0.384 | 0.561 | 0.339 | 0.933 | 0.946 | 0.869 | 0.916 | 0.803 | – | – | – | –
NCI-H2228 | – | – | – | – | 0.519 | 0.832 | 0.519 | 0.776 | 0.692 | 1.15 | 1.29 | 1.21 | 1.09 | 0.954 | 0.247 | 0.255 | 0.211 | 0.204
NCI-H2342 | 0.778 | 0.716 | 0.727 | 0.638 | 0.462 | 0.554 | 0.543 | 0.401 | 0.475 | – | – | – | – | – | 0.461 | 0.546 | 0.473 | 0.576
SW 900 | 0.43 | 0.409 | 0.441 | 0.504 | 0.76 | 0.866 | 0.841 | 0.845 | 0.819 | – | – | – | – | – | 0.609 | 0.517 | 0.564 | 0.478

Source: the supplement of paper PMC10307832
